In patent publication EP0041644B1 (priority 1980, dated 1981):

Assays:
[1] = tested on: L1210 Leukemia; assay: L1210 Leukemia - Test 1 (survival of tumor-bearing mice); type: in vivo
From the text: This evaluation of the ammonium salt finds the drug to be active against L1210 (ip) leukemia when administered ip one day post-implant of 10^6 L1210 cells (maximum T/C was 164%). […] The vehicle for the ammonium salt was water.

[2] = tested on: L1210 Leukemia; assay: L1210 Leukemia - Test 3 (vehicle comparison); type: in vivo, mice; details: Day 1 only, vehicle Saline
[3] = tested on: B16 Melanoma; assay: B16 Melanoma - Test 1 (ip tumor brei); type: in vivo, mice; details: for Av. Wt. Change, g Day 5 / Effect MST % T/C / MST Days / Survivors Day 5(60): QD 1→9, vehicle Saline
[4] = tested on: B16 Melanoma; assay: B16 Melanoma - Test 2 (ip tumor brei); type: in vivo, mice; details: QD +9
[5] = tested on: L-1210 Leukemia; assay: L-1210 Leukemia (Table VIII)
Experimental: The sodium and ammonium salts of the present invention were tested against transplantable mouse tumors as indicated below. The methodology used generally followed the protocols of the National Cancer Institute (Cancer Chemotherapy Rep., Part 3, 3, 1-103 (1972). The essential experimental details are given at the bottom of the following tables.

[6] = tested on: L1210 Leukemia; assay: L1210 Leukemia - Test 1 (survival of tumor-bearing mice); type: in vivo; details: for Survivors Day 5(30): qd 1→9, in saline
[7] = 0.5 mg/kg/day ip, qd 1→9, in H2O
[8] = 0.5 mg/kg/day ip, qd 1→9, in saline
[9] = 1 mg/kg/day ip, qd 1→9, in saline
[10] = 2 mg/kg/day ip, qd 1→9, in saline
[11] = 4 mg/kg/day ip, d. 1 only, in H2O
[12] = 4 mg/kg/day ip, d. 1 only, in saline
[13] = 6 mg/kg/day ip, d. 1 only, in H2O
[14] = 6 mg/kg/day ip, d. 1 only, in saline
[15] = 8 mg/kg/day ip, d. 1 only, in H2O
[16] = 8 mg/kg/day ip, d. 1 only, in saline
[17] = 10 mg/kg/day ip, d. 1 only, in H2O
[18] = 10 mg/kg/day ip, d. 1 only, in saline

N.N.[Cl][Pt][Cl] [Cis-DDP, cis-diammine dichloroplatinum (II)]
Average Weight Change [1, 7]: −3.8 | Effect MST % T/C [1, 7]: 143 % T/C | MST Days [1, 7]: 10.0 days | Survivors Day 5(30) [1, 7]: 6/6 | Average Weight Change [1, 8]: +1.5 | Effect MST % T/C [1, 8]: 100 % T/C | MST Days [1, 8]: 7.0 days | Average Weight Change ([1]; 1 mg/kg/day ip, qd 1→9, in H2O): −3.7 | Effect MST % T/C ([1]; 1 mg/kg/day ip, qd 1→9, in H2O): 114 % T/C | MST Days ([1]; 1 mg/kg/day ip, qd 1→9, in H2O): 8.0 days | Survivors Day 5(30) ([1]; 1 mg/kg/day ip, qd 1→9, in H2O): 6/6 | Average Weight Change [1, 9]: −0.9 | Effect MST % T/C [1, 9]: 150 % T/C | MST Days [1, 9]: 10.5 days | Survivors Day 5(30) [1, 9]: 6/6 | Average Weight Change ([1]; 2 mg/kg/day ip, qd 1→9, in H2O): −4.0 | Effect MST % T/C ([1]; 2 mg/kg/day ip, qd 1→9, in H2O): 86 % T/C | MST Days ([1]; 2 mg/kg/day ip, qd 1→9, in H2O): 6.0 days | Survivors Day 5(30) ([1]; 2 mg/kg/day ip, qd 1→9, in H2O): 4/6 | Average Weight Change [1, 10]: −3.3 | Effect MST % T/C [1, 10]: 250 % T/C | MST Days [1, 10]: 17.5 days | Average Weight Change [1, 11]: −5.9 | Effect MST % T/C [1, 11]: 100 % T/C | MST Days [1, 11]: 7.0 days | Survivors Day 5(30) [1, 11]: 6/6 | Average Weight Change [1, 12]: −0.7 | Effect MST % T/C [1, 12]: 164 % T/C | MST Days [1, 12]: 11.5 days | Survivors Day 5(30) [1, 12]: 6/6 | Average Weight Change [1, 13]: TOX | Effect MST % T/C [1, 13]: TOX | MST Days [1, 13]: TOX | Survivors Day 5(30) [1, 13]: 1/6 | Effect MST % T/C [1, 14]: 186 % T/C | MST Days [1, 14]: 13.0 days | Survivors Day 5(30) [1, 14]: 6/6 | Average Weight Change [1, 15]: TOX | Effect MST % T/C [1, 15]: TOX | MST Days [1, 15]: TOX | Survivors Day 5(30) [1, 15]: 4/6 | Effect MST % T/C [1, 16]: 193 % T/C | MST Days [1, 16]: 13.5 days | Survivors Day 5(30) [1, 16]: 6/6 | Average Weight Change [1, 17]: TOX | Effect MST % T/C [1, 17]: TOX | MST Days [1, 17]: TOX | Survivors Day 5(30) [1, 17]: 1/6 | Average Weight Change [1, 18]: −3.6 | MST Days [1, 18]: 14.5 days | Survivors Day 5(30) [1, 18]: 6/6 | Average Weight Change ([2]; 4 mg/kg ip): −1.7 | Effect MST % T/C ([2]; 4 mg/kg ip): 143 % T/C | MST Days ([2]; 4 mg/kg ip): 10.0 days | Survivors Day 5 ([2]; 4 mg/kg ip): 6/6 | Average Weight Change ([2]; 6 mg/kg ip): −2.3 | Effect MST % T/C ([2]; 6 mg/kg ip): 143 % T/C | MST Days ([2]; 6 mg/kg ip): 10.0 days | Survivors Day 5 ([2]; 6 mg/kg ip): 6/6 | Average Weight Change ([2]; 8 mg/kg ip): −1.8 | Effect MST % T/C ([2]; 8 mg/kg ip): 150 % T/C | MST Days ([2]; 8 mg/kg ip): 10.5 days | Survivors Day 5 ([2]; 8 mg/kg ip): 6/6 | Average Weight Change ([2]; 10 mg/kg ip): −4.5 | Effect MST % T/C ([2]; 10 mg/kg ip): 150 % T/C | MST Days ([2]; 10 mg/kg ip): 10.5 days | Survivors Day 5 ([2]; 10 mg/kg ip): 6/6 | Av. Wt. Change, g Day 5 ([3]; 0.8 mg/kg/day ip): -1.0 g | Effect MST % T/C ([3]; 0.8 mg/kg/day ip): 174 % T/C | MST Days ([3]; 0.8 mg/kg/day ip): 34.0 days | Av. Wt. Change, g Day 5 ([3]; 1.6 mg/kg/day ip): -4.3 g | Effect MST % T/C ([3]; 1.6 mg/kg/day ip): 36 % T/C | MST Days ([3]; 1.6 mg/kg/day ip): 7.0 days | Av. Wt. Change, g Day 5 ([3]; 2.0 mg/kg/day ip): -4.5 g | Effect MST % T/C ([3]; 2.0 mg/kg/day ip): 36 % T/C | MST Days ([3]; 2.0 mg/kg/day ip): 7.0 days | Survivors Day 5(60) ([3]; 0.8 mg/kg/day ip): 10/10 | Survivors Day 5(60) ([3]; 1.6 mg/kg/day ip): 9/9 | Survivors Day 5(60) ([3]; 2.0 mg/kg/day ip): 8/10 | mice cured ([3]; ip B16, at the dose of maximum T/C): no cures | maximum T/C ([3]; ip B16, ip QD 1→9): 174% | Average Weight Change ([4]; 0.4 mg/kg/day ip): -2.0 g | Effect MST % T/C ([4]; 0.4 mg/kg/day ip): 121 % T/C | MST Days ([4]; 0.4 mg/kg/day ip): 25.0 days | Average Weight Change ([4]; 0.8 mg/kg/day ip): -1.5 g | Effect MST % T/C ([4]; 0.8 mg/kg/day ip): 139 % T/C | MST Days ([4]; 0.8 mg/kg/day ip): 38.5 days | Average Weight Change ([4]; 1.6 mg/kg/day ip): -2.7 g | Effect MST % T/C ([4]; 1.6 mg/kg/day ip): 173 % T/C | MST Days ([4]; 1.6 mg/kg/day ip): 35.5 days | Survivors Day 10 (60) ([4]; 0.4 mg/kg/day ip): 8/10 | Survivors Day 10 (60) ([4]; 0.8 mg/kg/day ip): 10/10 | Survivors Day 10 (60) ([4]; 1.6 mg/kg/day ip): 10/10 | Average Weight Change,g ([5]; 0.4 mg/kg/inj ip, qd 1→9): +0.8 g | Effect MST % T/C ([5]; 0.4 mg/kg/inj ip, qd 1→9): 117 % T/C | MST Days ([5]; 0.4 mg/kg/inj ip, qd 1→9): 7.0 days | Survivors Day 5(30) ([5]; 0.4 mg/kg/inj ip, qd 1→9): 6/6 | Average Weight Change,g ([5]; 0.8 mg/kg/inj ip, qd 1→9): -0.8 g | Effect MST % T/C ([5]; 0.8 mg/kg/inj ip, qd 1→9): 133 % T/C | MST Days ([5]; 0.8 mg/kg/inj ip, qd 1→9): 8.0 days | Survivors Day 5(30) ([5]; 0.8 mg/kg/inj ip, qd 1→9): 6/6 | Average Weight Change,g ([5]; 1.6 mg/kg/inj ip, qd 1→9): -2.5 g | Effect MST % T/C ([5]; 1.6 mg/kg/inj ip, qd 1→9): 200 % T/C | MST Days ([5]; 1.6 mg/kg/inj ip, qd 1→9): 12.0 days | Survivors Day 5(30) ([5]; 1.6 mg/kg/inj ip, qd 1→9): 6/6 | Average Weight Change,g ([5]; 2.4 mg/kg/inj ip, qd 1→9): -3.1 g | Effect MST % T/C ([5]; 2.4 mg/kg/inj ip, qd 1→9): 167 % T/C | MST Days ([5]; 2.4 mg/kg/inj ip, qd 1→9): 10.0 days | Survivors Day 5(30) ([5]; 2.4 mg/kg/inj ip, qd 1→9): 6/6 | Average Weight Change,g ([5]; 4 mg/kg/inj ip, d.1): -1.5 g | Effect MST % T/C ([5]; 4 mg/kg/inj ip, d.1): 167 % T/C | MST Days ([5]; 4 mg/kg/inj ip, d.1): 10.0 days | Survivors Day 5(30) ([5]; 4 mg/kg/inj ip, d.1): 6/6 | Average Weight Change,g ([5]; 6 mg/kg/inj ip, d.1): -3.7 g | Effect MST % T/C ([5]; 6 mg/kg/inj ip, d.1): 167 % T/C | MST Days ([5]; 6 mg/kg/inj ip, d.1): 10.0 days | Survivors Day 5(30) ([5]; 6 mg/kg/inj ip, d.1): 6/6 | Average Weight Change,g ([5]; 8 mg/kg/inj ip, d.1): -2.8 g | Effect MST % T/C ([5]; 8 mg/kg/inj ip, d.1): 158 % T/C | MST Days ([5]; 8 mg/kg/inj ip, d.1): 9.5 days | Survivors Day 5(30) ([5]; 8 mg/kg/inj ip, d.1): 6/6 | Average Weight Change,g ([5]; 10 mg/kg/inj ip, d.1): -2.0 g | Effect MST % T/C ([5]; 10 mg/kg/inj ip, d.1): 208 % T/C | MST Days ([5]; 10 mg/kg/inj ip, d.1): 12.5 days | Survivors Day 5(30) ([5]; 10 mg/kg/inj ip, d.1): 6/6 | maximum T/C ([5]; qd 1→9, 1.6 mg/kg/inj): 200% | maximum T/C ([5]; single ip injections): 208% | optimal doses ([5]; single ip injections, dose of maximum T/C): 10 mg/kg | Survivors Day 5(30) ([6]; 0.5 mg/kg/day ip): 6/6 | Survivors Day 5(30) ([6]; 2 mg/kg/day ip): 6/6 | Average Weight Change [6, 14]: −2.8 | Average Weight Change [6, 16]: −4.1 | Effect MST % T/C [6, 18]: 207 % T/C
